The values that follow come from patent publication US4007177A, “Cephalosporin derivatives” (Sankyo Company Limited, priority 1973, dated 1977).

Holding throughout (type): cell-based
Experiment [1] relates to E. coli NIHJ. Put plainly: Minimum inhibitory concentration, E. coli NIHJ. The note with it: Escherichia coli. As to the method: (§1) Minimum inhibitory concentrations (MIC) were determined for the compounds of this invention.
Experiment [2] relates to S.aureus 209p. Briefly: Minimum inhibitory concentration, S.aureus 209p. The note with it: Staphylococcus aureus. As to the method:
as §1

For experiment [3], the system named is Klebsiella 806. Briefly: Minimum inhibitory concentration, Klebsiella 806. As to the method:
as §1

In experiment [4] the test system is Prot. vulgaris. Briefly: Minimum inhibitory concentration, Prot. vulgaris. The note with it: Proteus vulgaris. As to the method: as §1
Experiment [5] has as its system S.aureus R. Briefly: Minimum inhibitory concentration, S.aureus R. Conditions: Staphylococcus aureus. As to the method: as §1
In experiment [6] the test system is Sh. flexneri 2a. Put plainly: Minimum inhibitory concentration, Sh. flexneri 2a. The note with it: Shigella flexneri. The procedure:
as §1

The test system of experiment [7] is Salm. ent. Gaertner. Put plainly: Minimum inhibitory concentration, Salm. ent. Gaertner. Conditions: read-out: Minimum Inhibitory Concentration. As to the method: as §1
For experiment [8], the system named is Klebsiella 846. Put plainly: Minimum inhibitory concentration, Klebsiella 846. The procedure: as §1
Experiment [9] deals with E. coli 609 (R). Put plainly: Minimum inhibitory concentration, E. coli 609 (R). Conditions: Escherichia coli, read-out: Minimum Inhibitory Concentration. The procedure: as §1

≈ marks a conversion by molar mass, not a printed value. Read-outs that look alike come from different tables or passages of the source.

Consider `COC1(NC(=O)Cc2ccccc2)C(=O)N2C(C(=O)O)=C(COC(N)=O)CSC21` (stereo not drawn) [C6 H5, reference compound], for which the MIC was found to be 25 µg/mL (≈ 59.3 µM) in [1]; 0.8 µg/mL (≈ 1.9 µM) in [2]; 25 µg/mL (≈ 59.3 µM) in experiment [3]; 25 µg/mL (≈ 59.3 µM) in [4]; 3.1 µg/mL (≈ 7.36 µM) in experiment [5]; 12.5 µg/mL (≈ 29.7 µM) in experiment [6]. Further, the MIC in experiment [7] is 12.5 µg/mL (≈ 29.7 µM); in [8], greater than 400 µg/mL; in [9] (E. coli 609 (R)), 25 µg/mL (≈ 59.3 µM).
`COC1(NC(=O)C[n+]2cc([O-])on2)C(=O)N2C(C(=O)O)=C(CSc3nnnn3C)CSC21` (stereo not drawn): the MIC in experiment [1] amounted to 1.5 µg/mL (≈ 3.1 µM); in experiment [2], 0.8 µg/mL (≈ 1.65 µM); in experiment [3], 1.5 µg/mL (≈ 3.1 µM); in [4], 6.2 µg/mL (≈ 12.8 µM); in experiment [5] it was 1.5 µg/mL (≈ 3.1 µM); in [6], 1.5 µg/mL (≈ 3.1 µM). For the same compound, the values for the MIC in [7] (Salm. ent. Gaertner), in experiment [8] and in experiment [9] (E. coli 609 (R)) were 0.8 µg/mL (≈ 1.65 µM), greater than 200 µg/mL and 1.5 µg/mL (≈ 3.1 µM), respectively.
For `COC1(NC(=O)CSc2ccon2)C(=O)N2C(C(=O)O)=C(COC(C)=O)CSC21` (stereo not drawn) [3-Acetoxymethyl-7β-(3-isoxazolylthioacetamido)-7α-methoxy-3-cephem-4-carboxylic acid], the MIC in experiment [2] was 0.2 µg/mL (≈ 0.451 µM); in [5] it was 0.8 µg/mL (≈ 1.8 µM); in experiment [6], 6.2 µg/mL (≈ 14 µM); in experiment [8], greater than 400 µg/mL.
As for `CCS(=O)(=O)CC(=O)N[C@]1(OC)C(=O)N2C(C(=O)O)=C(CSc3nnnn3C)CS[C@@H]21` [C2 H 5 SO2, 7β-Ethylsulfonylacetamido-7α-methoxy-3-(1-methyl-1H-tetrazol-5-yl)thiomethyl-3-cephem-4-carboxylic acid], the MIC in [1] was determined as 1.5 µg/mL (≈ 3.05 µM); in [2], 1.5 µg/mL (≈ 3.05 µM); in [3], 1.5 µg/mL (≈ 3.05 µM); in [4], 6.2 µg/mL (≈ 12.6 µM); in [5] it was 1.5 µg/mL (≈ 3.05 µM); in experiment [6] it was 1.5 µg/mL (≈ 3.05 µM). Further, the MIC in [7] (Salm. ent. Gaertner) was 0.8 µg/mL (≈ 1.62 µM); in experiment [8], greater than 400 µg/mL; in [9] (E. coli 609 (R)), 1.5 µg/mL (≈ 3.05 µM).
As for `COC1(NC(=O)CSCN=[N+]=[N-])C(=O)N2C(C(=O)O)=C(CSc3nnnn3C)CSC21` (stereo not drawn) [N3 CH2 S], the MIC was 3.1 µg/mL (≈ 6.36 µM) in experiment [1]; 0.4 µg/mL (≈ 0.82 µM) in experiment [2]; 3.1 µg/mL (≈ 6.36 µM) in [3]; 1.5 µg/mL (≈ 3.08 µM) in experiment [4]; 0.4 µg/mL (≈ 0.82 µM) in experiment [5]; 1.5 µg/mL (≈ 3.08 µM) in experiment [6]. Moreover, the MIC in experiment [7] (Salm. ent. Gaertner) is 0.8 µg/mL (≈ 1.64 µM); in experiment [8], greater than 200 µg/mL; in experiment [9] (E. coli 609 (R)) it was 3.1 µg/mL (≈ 6.36 µM).
As for `COC1(NC(=O)CS(C)(=O)=O)C(=O)N2C(C(=O)O)=C(CSc3nnnn3C)CSC21` (stereo not drawn) [CH3 SO2, 7α-Methoxy-7β-methylsulfonylacetamido-3-(1-methyl-1H-tetrazol-5-yl)thiomethyl-3-cephem-4-carboxylic acid], the MIC was found to be 0.8 µg/mL (≈ 1.67 µM) in [2]; 0.8 µg/mL (≈ 1.67 µM) in experiment [3]; 1.5 µg/mL (≈ 3.13 µM) in [6]; 0.4 µg/mL (≈ 0.836 µM) in experiment [7] (Salm. ent. Gaertner); 400 µg/mL (≈ 836 µM) in [8].
As to `C#CCSCC(=O)NC1(OC)C(=O)N2C(C(=O)O)=C(CSc3nnnn3C)CSC21` (stereo not drawn) [HCCCH2 S, 3-(1-Methyl-1H-tetrazol-5-yl)thiomethyl-7β-propargylthioacetamido-7α-methoxy-3-cephem-4-carboxylic acid], the MIC is 0.2 µg/mL (≈ 0.425 µM) in experiment [2]; 0.8 µg/mL (≈ 1.7 µM) in experiment [5]; 3.1 µg/mL (≈ 6.59 µM) in experiment [6]; 0.8 µg/mL (≈ 1.7 µM) in [7] (Salm. ent. Gaertner); 400 µg/mL (≈ 850 µM) in experiment [8].
On to `CC(=O)OCC1=C(C(=O)O)N2C(=O)[C@@H](NC(=O)Cc3cccs3)[C@H]2SC1` [Cephalothin, reference compound], for which the MIC was 6.2 µg/mL (≈ 15.6 µM) in experiment [1]; 6.2 µg/mL (≈ 15.6 µM) in experiment [3]; 6.2 µg/mL (≈ 15.6 µM) in experiment [4]; 12.5 µg/mL (≈ 31.5 µM) in [6]; 6.2 µg/mL (≈ 15.6 µM) in experiment [7] (Salm. ent. Gaertner); greater than 200 µg/mL in [8]. For the same compound, in experiment [9], the MIC is 25 µg/mL (≈ 63.1 µM).
As for `COC1(NC(=O)CSCCO)C(=O)N2C(C(=O)O)=C(CSc3nnnn3C)CSC21` (stereo not drawn) [HOCH2 CH2 S, 7β-(2-Hydroxyethyl)thioacetamido-7α-methoxy-3-(1-methyl-1H-tetrazol-5-yl)thiomethyl-3-cephem-4-carboxylic acid], the MIC was determined as 1.5 µg/mL (≈ 3.15 µM) in [1]; 0.8 µg/mL (≈ 1.68 µM) in experiment [2]; 1.5 µg/mL (≈ 3.15 µM) in [3]; 6.2 µg/mL (≈ 13 µM) in [4]; 1.5 µg/mL (≈ 3.15 µM) in experiment [5]; 3.1 µg/mL (≈ 6.5 µM) in experiment [6]. The MIC in experiment [7] (Salm. ent. Gaertner) was 1.5 µg/mL (≈ 3.15 µM); in experiment [8] it was 400 µg/mL (≈ 839 µM); in [9] (E. coli 609 (R)), 1.5 µg/mL (≈ 3.15 µM).
As for `CO[C@@]1(NC(=O)CSCN=[N+]=[N-])C(=O)N2C(C(=O)O)=C(COC(N)=O)CS[C@@H]21` [N3 CH2 S, OCONH2, 7β-Azidomethylthioacetamido-3-carbamoyloxymethyl-7α-methoxy-3-cephem-4-carboxylic acid], the MIC in experiment [1] is 3.1 µg/mL (≈ 7.17 µM); in experiment [2], 0.2 µg/mL (≈ 0.462 µM); in experiment [3], 3.1 µg/mL (≈ 7.17 µM); in experiment [4] it was 3.1 µg/mL (≈ 7.17 µM); in [5] it was 1.5 µg/mL (≈ 3.47 µM); in experiment [6], 3.1 µg/mL (≈ 7.17 µM). Besides, the MIC in experiment [7] (Salm. ent. Gaertner) is 1.5 µg/mL (≈ 3.47 µM); in experiment [8], greater than 400 µg/mL; in experiment [9] (E. coli 609 (R)) it was 6.2 µg/mL (≈ 14.3 µM).
With `COC1(NC(=O)CSc2ccon2)C(=O)N2C(C(=O)O)=C(CSc3nnnn3C)CSC21` (stereo not drawn), the MIC was 3.1 µg/mL (≈ 6.21 µM) in experiment [1]; 0.2 µg/mL (≈ 0.4 µM) in [2]; 6.2 µg/mL (≈ 12.4 µM) in experiment [3]; 3.1 µg/mL (≈ 6.21 µM) in experiment [4]; 0.8 µg/mL (≈ 1.6 µM) in [5]; 3.1 µg/mL (≈ 6.21 µM) in experiment [6]. Moreover, the MIC is 0.8 µg/mL (≈ 1.6 µM) in [7] (Salm. ent. Gaertner), greater than 400 µg/mL in [8] and 3.1 µg/mL (≈ 6.21 µM) in [9] (E. coli 609 (R)).
Turning to `COC1(NC(=O)CS(=O)(=O)CCC#N)C(=O)N2C(C(=O)O)=C(CSc3nnnn3C)CSC21` (stereo not drawn) [NCCH2 CH2 SO2, 7β-(2-Cyanoethylsulfonyl)acetamido-7α-methoxy-3-(1-methyl-1H-tetrazol-5-yl)thiomethyl-3-cephem-4-carboxylic acid], the MIC in experiment [1] amounted to 1.5 µg/mL (≈ 2.9 µM); in experiment [2], 1.5 µg/mL (≈ 2.9 µM); in experiment [3], 1.5 µg/mL (≈ 2.9 µM); in experiment [4] it was 6.2 µg/mL (≈ 12 µM); in experiment [5], 3.1 µg/mL (≈ 5.99 µM); in [6] it was 3.1 µg/mL (≈ 5.99 µM). Also, the MIC worked out at 0.8 µg/mL (≈ 1.55 µM) in experiment [7] (Salm. ent. Gaertner), 200 µg/mL (≈ 386 µM) in [8] and 1.5 µg/mL (≈ 2.9 µM) in experiment [9] (E. coli 609 (R)).
Consider `COC1(NC(=O)COc2ccon2)C(=O)N2C(C(=O)O)=C(CSc3nnnn3C)CSC21` (stereo not drawn), for which the MIC in experiment [1] is 3.1 µg/mL (≈ 6.41 µM); in experiment [2], 0.2 µg/mL (≈ 0.414 µM); in [3], 3.1 µg/mL (≈ 6.41 µM); in experiment [4] it was 6.2 µg/mL (≈ 12.8 µM); in experiment [5], 0.8 µg/mL (≈ 1.65 µM); in experiment [6] it was 3.1 µg/mL (≈ 6.41 µM). Further, the MIC is 1.5 µg/mL (≈ 3.1 µM) in experiment [7] (Salm. ent. Gaertner), greater than 400 µg/mL in [8] and 3.1 µg/mL (≈ 6.41 µM) in [9] (E. coli 609 (R)).
